Results from patent US11976074B1, “Crystalline salts of Linsitinib” (Sling Therapeutics, Inc., priority 2023, dated 2024).
Entries after “also recorded” stand apart in the source; their conditions may differ. Each block holds one compound with its values, some of them ahead of it.

Experiments:
Assay type in all cases: physicochemical
[1] = pH-solubility of linsitinib free base and selected salts (pH 1.5 to 6.5, overnight equilibration, HPLC); details: for solubility: overnight equilibration; for Final pH: after overnight equilibration
Procedure: The pH-solubility of selected salts (Phosphate 1, L-Malate 1, Esylate 1, and Esylate 2) was evaluated and compared with linsitinib free base. The solubility analysis was conducted in a manner consistent with a previous study that was performed with linsitinib free base. Aqueous solutions were prepared between pH 1.5 and pH 6.5 in 0.5 pH unit increments via titration of the solution using NaOH and HCl. For each salt or the free base, an attempt was made to reach saturation in each of the solutions by adding sufficient material to the solution such that excess solids remained. If saturation was achieved, the pH of the solution was measured and adjusted to the target pH and additional material was added if needed. The samples were then equilibrated overnight. The final pH of the solution was measured, the solids were filtered and selected samples were analyzed by PXRD. The concentration of linsitinib in the filtrate was quantitated by HPLC (diluted as needed). In some cases, significant drift (+1 pH unit or more) of the final pH from the target pH was observed after the overnight equilibration.
The pH-solubility data is shown graphically in FIG. 89. […] Indeed, it should be noted that in the majority of the low pH systems, higher initial dissolution/solubility was observed followed by precipitation of the material from solution upon longer equilibration.

[2] = Equilibrium solubility in bio-relevant media (FaSSGF pH 1.6, FaSSIF pH 6.5)
Description: In addition to the pH-solubility data, a comparison of the equilibrium solubility of linsitinib free base and salts in two bio-relevant media (Table 28), fasted state simulated gastric fluid (FaSSGF pH 1.6) and intestinal fluid (FaSSIF pH 6.5) was completed. […] A saturated solution of Esylate 1 was not achieved during this study and therefore the equilibrium solubility could be higher than determined. It should be noted that variability of almost a full pH unit was noted among the samples making a direct comparison more challenging.

[3] = DVS analysis (hygroscopicity) of Esylate 2
Description: Esylate 2 appears to be a stable polymorph of the esylate salt of linsitinib. Esylate 2 was isolated from a wide range of techniques, solvents and temperatures, and a few samples were characterized further (Table 13). NMR analysis confirmed it to be a 1:1 linsitinib esylate salt. […] This was further supported by successful indexing of its PXRD pattern, whose calculated unit cell volume pointed to a 1:1 salt (Section 0).

[4] = 75% relative humidity stress test; details: 24 days, RT
Procedure: (§1) A scale-up attempt for Esylate 2 was carried out towards the relative humidity stress test and the mechanical stress test.

[5] = Mechanical stress test (neat grinding/milling); details: milled neat at max power for 30 minutes
Procedure: as §1

[6] = Interconversion slurries of esylate forms; details: 4° C., RT, 60° C.; MEK and 2:1 EtOH:HEP
Procedure: To find the thermodynamically stable form of the mono-salt, interconversion slurries were set-up at three different temperatures in two different solvent systems between Esylates 1, 2, 3 and Esylate 4+Esylate 5 (Table 11). A sample of Esylate 4+Esylate 5 was included as part of the interconversion slurry in-spite of Esylate 4 being a solvate as Esylate 5 could not be isolated as a separate pure phase until the drying experiment was carried out on Esylate 4 towards the end of the study. Slurries were set-up at 4° C., RT and at 60° C. in MEK and 2:1 EtOH:HEP, resulting in a total of six experiments which were run for a total of 7 days.

[7] = Water activity slurries of Esylate 2 seeded with Esylate 1; details: for PXRD result of water activity slurry: seeded with Esylate 1
Description: Water activity slurries were set-up with Esylate 2 and seeds of Esylate 1 to explore the presence of a potential hydrate and any associated critical water activity (Table 12). Four slurries were set-up in varying ratios of THF and H2O corresponding to 0.45, 0.63, 0.78 and 0.91 aw respectively.

[8] = Heating experiments with selected malate samples
Procedure: Based on the thermal data, Malate 4 and Malate 5 were heated at […] for 15 minutes. The solids were re-analyzed by PXRD after heating to investigate any form change upon dehydration. […] While there was an insufficient amount of sample to further characterize Malate 7, based on the conditions upon which it was generated, it could be a lower hydrate or an anhydrous form.

[9] = Thermogravimetric analysis (TGA); details: start to 83° C.
Procedure: The TG analysis was carried out using a TA Instruments […] Discovery Series instrument. The instrument balance was calibrated using class M weights and the temperature calibration was performed using alumel. The nitrogen purge was 10 mL per minute at the balance and 25 mL per minute at the furnace. The sample was placed into a pre-tared platinum pan and heated from approximately 25° C. to 300° C. at a rate of 10° C. per minute.

[10] = Differential scanning calorimetry (DSC); details: endotherms
Procedure: DSC analysis was carried out using a TA Instruments […] Discovery Series instrument. The instrument temperature calibrations were performed using indium. The DSC cell was kept under a nitrogen purge of 50 mL per minute during the analysis. The sample was placed in a standard, crimped aluminum pan and heated from approximately 25° C. to 300° C. at a rate of 10° C. per minute

[11] = Physical stability testing of Esylate 4 (elevated temperature vacuum drying); details: vacuum oven, 60° C., 18 hours
Description: Esylate 4 was obtained from salt formation experiments using 1 Eq ESA at RT and ST in IPA and was further characterized using multiple techniques (Table 16).
Esylate 5 was initially only obtained in-tandem with Esylate 4 from slurries in several different solvent systems (FIG. 4). […] Due to the fact that the sample had been generated via drying at elevated temperature, the weight loss observed upon heating is likely due to surface or channel water absorbed during exposure to ambient conditions. […] Esylate 5 was not obtained from any of the interconversion slurries, indicating it is metastable under the conditions investigated (Table 18).

solubility ([1]; aqueous solution, pH 6, aqueous buffer, thermodynamic from solid, target pH 6.0, read-out: Solubility): 0.7 mg/mL
Solubility compared to the free base and other salts ([1]; between pH 3 and pH 4): highest solubility
Solubility compared with the free base or Phosphate 1 ([1]; lower pH (<3)): significantly higher solubility
Final pH ([1]; target pH 1.5): 1.45
solubility ([1]; target pH 1.5, * = clear solution, not equilibrium value): 106.19 mg/mL
Final pH ([1]; target pH 2.0): 2.06
solubility ([1]; target pH 2.0, * = clear solution, not equilibrium value): 97.33 mg/mL
Final pH ([1]; target pH 2.5): 2.54
solubility ([1]; target pH 2.5, * = clear solution, not equilibrium value): 71.00 mg/mL
Final pH ([1]; target pH 3.0): 3.04
solubility ([1]; target pH 3.0, * = clear solution, not equilibrium value): 73.90 mg/mL
Final pH ([1]; target pH 3.5): 3.53
solubility ([1]; target pH 3.5, * = clear solution, not equilibrium value): 38.04 mg/mL
Final pH ([1]; target pH 4.0): 3.99
solubility ([1]; target pH 4.0, * = clear solution, not equilibrium value): 39.56 mg/mL
Final pH ([1]; target pH 4.5): 4.54
solubility ([1]; target pH 4.5, * = clear solution, not equilibrium value): 18.90 mg/mL
Final pH ([1]; target pH 5.0): 4.96
solubility ([1]; target pH 5.0): 20.46 mg/mL
Final pH ([1]; target pH 5.5): 5.48
Final pH ([1]; target pH 6.0): 4.18
Final pH ([1]; target pH 6.5): 4.34
solubility ([1]; target pH 6.5): 0.002 mg/mL
Final pH ([2]; FaSSGF (pH 1.6)): 3.25
solubility ([2]; FaSSGF (pH 1.6)): 103.10 mg/mL
Final pH ([2]; FaSSIF (pH 6.5)): 3.72
solubility ([2]; FaSSIF (pH 6.5)): 1.62 mg/mL
Hygroscopicity by DVS [3]: slightly hygroscopic
Net weight change after DVS analysis [3]: no net weight change
Weight gain and loss during the sorption and desorption cycles [3]: 1%
DVS sorption total weight gain ([3]; 5-95% RH): 5-95% RH: Total 33.1% weight gain
DVS sorption weight gain ([3]; 35-75% RH): 35-75% RH: 12.0% weight gain
DVS desorption weight loss ([3]; 75-35% RH): 75-35% RH: 12.3% weight loss
DVS sorption weight gain ([3]; 75-95% RH): 75-95% RH: 16.9% weight gain
DVS desorption total weight loss ([3]; 95-5% RH): 95-5% RH: Total 33.1% weight loss
DVS desorption weight loss ([3]; 95-75% RH): 95-75% RH: 14.2% weight loss
Water up-take above 85% RH ([3]; above 85% RH): ~0.8%
DVS net weight change ([3]; after sorption and desorption): −0.04% weight loss
PXRD result after 75% RH stress [4]: no form change; also recorded: Esylate 2
Weight gain by TGA after 75% RH stress [4]: no weight gain
Relative stability of the form in interconversion slurries [6]: most stable form
PXRD result of water activity slurry ([7]; 93.1% THF in H2O, aw = 0.91, RT): Esylate 2
PXRD result of water activity slurry ([7]; 94.7% THF in H2O, aw = 0.78, RT): Esylate 2
PXRD result of water activity slurry ([7]; 96.2% THF in H2O, aw = 0.63, RT): Esylate 2
PXRD result of water activity slurry ([7]; 97.6% THF in H2O, aw = 0.45, RT): Esylate 2
Critical water activity, if present ([7]; THF/H2O slurries at RT): > 0.91 aw
Compound: CCS(=O)(=O)O.C[C@]1(O)C[C@@H](c2nc(-c3ccc4ccc(-c5ccccc5)nc4c3)c3c(N)nccn32)C1 [Esylate 2]
Solubility compared with the free base ([2]; FaSSGF (pH 1.6), in words): highest solubility by a significant margin
PXRD result after grinding [5]: poorly crystalline Esylate 2 along with amorphous residue

XRPD result after heating ([8]; 92° C., 15 min): Malate 7 + pk
TGA Results (weight loss) [9]: 7.4%, start to 83 °C
DSC Results, Endo [10]: Endo: 109 °C
Compound: C[C@]1(O)C[C@@H](c2nc(-c3ccc4ccc(-c5ccccc5)nc4c3)c3c(N)nccn32)C1.O=C(O)C[C@H](O)C(=O)O [Malate 5]
Form change upon heating (PXRD) ([8]; heated for 15 minutes): dehydrate to a new form, designated as Malate 7

Relative stability of the form in interconversion slurries [6]: metastable
PXRD result after vacuum drying [11]: form change into Esylate 5
Compound: CCS(=O)(=O)O.C[C@]1(O)C[C@@H](c2nc(-c3ccc4ccc(-c5ccccc5)nc4c3)c3c(N)nccn32)C1 [Esylate 4]
